In paper PMC10816272, “Comparative Structure-Based Virtual Screening Utilizing Optimized AlphaFold Model Identifies Selective HDAC11 Inhibitor” (International Journal of Molecular Sciences, 2024):
pIC50: −log10 of the molar value.

Target: T1, HDAC11 (Homo sapiens, UniProt Q96DB2)
T1 construct: full-length human
T1 sequence (Q96DB2 1-347): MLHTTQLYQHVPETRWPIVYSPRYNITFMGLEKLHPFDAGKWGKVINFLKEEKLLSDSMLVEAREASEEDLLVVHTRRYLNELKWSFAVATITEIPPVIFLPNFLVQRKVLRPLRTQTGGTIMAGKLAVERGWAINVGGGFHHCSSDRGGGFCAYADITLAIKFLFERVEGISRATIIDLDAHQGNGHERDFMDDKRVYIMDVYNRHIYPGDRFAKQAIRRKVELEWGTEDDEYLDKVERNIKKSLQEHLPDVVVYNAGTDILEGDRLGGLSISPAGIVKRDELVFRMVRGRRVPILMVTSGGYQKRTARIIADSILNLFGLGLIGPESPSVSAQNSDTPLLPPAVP
Assay: biochemical
Design: continuous fluorescence deacylase assay with fatty acid-acylated TNFα-derived peptide substrate
Description: In the case of HDAC11, the full-length human was expressed and purified as described in previous work. A fluorescence-based HDAC11 assay was used. The fluorescence measurements were performed using a PerkinElmer Envision 2104 multilabel plate reader (Waltham, MA, USA) at λex = 320 nm and λem = 430 nm. The reaction mixture consisted of HDAC11 and the fatty acid-acylated peptide substrate derived from TNFα in a reaction buffer—comprising 50 mM HEPES, 2 mg/mL BSA, and 70 µM TCEP—at pH 7.4, which was adjusted with NaOH (total volume 40 μL). The reactions were incubated in black 384-well plates for 30 min (scan every 30 s) at room temperature, and the increase in relative fluorescence reflecting the product formation was monitored. Positive (HDAC11, substrate, DMSO, and buffer) and negative controls (substrate, DMSO, and vuffer) were included in every measurement.

pIC50: < 4.70
SMILES: Nc1ccccc1NC(=O)c1ccc(CNC(=O)OCc2cccnc2)cc1 [Entinostat]
